In general, IC50 refers to the concentration at which inhibition is half-maximal.

Where a name gives a salt, the structure may show the parent alone.

The target of this experiment is T1, hITK enzyme (FLAG-tagged full-length hITK) (Homo sapiens, UniProt Q08881).
T1 construct: strongly expressing FLAG-tagged full-length hITK in Sf9 cells; FLAG; made in house; host or cells: Sf9 insect cells (ITK); Escherichia coli (GST-SLP76 substrate)
T1 sequence (Q08881 1-620): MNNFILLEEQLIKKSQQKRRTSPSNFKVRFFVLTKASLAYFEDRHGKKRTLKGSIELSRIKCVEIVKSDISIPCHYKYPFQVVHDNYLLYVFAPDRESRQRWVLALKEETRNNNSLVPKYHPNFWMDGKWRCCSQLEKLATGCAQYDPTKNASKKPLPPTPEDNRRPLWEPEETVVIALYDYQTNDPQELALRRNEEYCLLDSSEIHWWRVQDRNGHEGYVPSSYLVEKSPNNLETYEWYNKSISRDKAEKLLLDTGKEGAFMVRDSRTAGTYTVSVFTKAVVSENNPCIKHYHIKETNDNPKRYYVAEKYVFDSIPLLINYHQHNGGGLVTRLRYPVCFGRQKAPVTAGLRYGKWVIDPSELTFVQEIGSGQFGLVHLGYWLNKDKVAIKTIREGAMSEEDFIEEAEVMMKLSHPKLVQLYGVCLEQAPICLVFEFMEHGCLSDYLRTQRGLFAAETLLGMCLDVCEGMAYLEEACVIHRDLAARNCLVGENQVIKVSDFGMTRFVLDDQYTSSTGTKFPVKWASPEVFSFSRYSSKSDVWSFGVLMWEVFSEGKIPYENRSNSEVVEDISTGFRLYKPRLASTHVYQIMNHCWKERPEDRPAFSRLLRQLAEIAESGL
Put plainly: ITK inhibitory activity (HTRF kinase assay, biotinylated GST-SLP76 substrate). Type of experiment: biochemical. The following applies: IC50 calculated from the 2 test compound concentrations sandwiching 50% ITK inhibitory rate. As to the method:
(1) Preparation of hITK Enzyme
hITK enzyme was prepared by strongly expressing FLAG-tagged full-length hITK in Sf9 cells, and purifying same by anti-FLAG antibody column.
(2) Preparation of biotinylated GST-SLP76
Biotinylated GST-SLP76 was prepared by strongly expressing GST-tagged SLP76 (aa95-175) in Escherichia coli, purifying same by glutathion sepharose column and biotinylating same.
(3) Preparation of Solution
(i) buffer for dilution: 20 mmol/L 3-(N-morpholino)propanesulfonic acid (pH 7.0) (DOJINDO LABORATORIES), 10 mmol/L magnesium chloride (Sigma-Aldrich Corporation), 1 mmol/L dithiothreitol (Nacalai Tesque, Inc.), 0.1% gelatin (Sigma-Aldrich Corporation)
(ii) substrate solution: 0.2 μg/mL biotinylated GST-SLP76, 100 μmol/L ATP (Sigma-Aldrich Corporation), prepared with buffer for dilution
(iii) test compound solution: test compound, 50% dimethyl sulfoxide (DMSO), prepared with buffer for dilution
(iv) enzyme solution: 50 ng/mL hITK enzyme, prepared with buffer for dilution
(v) control solution: solution after removal of test compound from the mixture of the above-mentioned (i), (ii) and (iii)
(vi) blank solution: solution after removal of ATP from the mixture of the above-mentioned (i), (ii) and (iii)
(vii) detection buffer: 0.1 μg/mL Anti-Phosphotyrosine (PT66)-Cryptate (Cisbio), 2.5 μg/mL streptavidin-binding XL665 (Cisbio), 50 mmol/L 4-(2-hydroxyethyl)-1-piperazineethanesulfonic acid (pH 7.4) (Nacalai Tesque, Inc.), 30 mmol/L EDTA (NipponGene), 0.1% TritonX (Sigma-Aldrich Corporation), 200 mmol/L potassium fluoride (Wako Pure Chemical Industries, Ltd.), 0.05% bovine serum albumin (Sigma-Aldrich Corporation) (4) Measurement of ITK Inhibitory Activity
A substrate solution (25 μL/well), a test compound solution (5 μL/well) and an enzyme solution (20 μL/well) were added into 96 well half-area white plate (plate, Corning Incorporated 3642) to start a kinase reaction. The plate was stood still at room temperature for 10 min. Then, a detection buffer (50 μL/well) was added to the plate. After 2 hr from the addition of the detection buffer, fluorescence intensity at 620 nm (excited at 337 nm), and fluorescence intensity at 665 nm ([…]) were measured by a fluorescence microplate reader.
The Ratio (fluorescence intensity at 665 nm/fluorescence intensity at 620 nm×10000) of each test compound was calculated from the measured fluorescence intensity. Simultaneously, the measurement was performed using a blank solution and a control solution, and % of control value of each test compound was calculated from the following formula. % of control=(Ratio of test compound−Ratio of blank)/(Ratio of control−Ratio of blank)×100 ITK inhibitory rate (%)=100−(% of control)
The IC50 value was calculated from the test compound concentrations at 2 points sandwiching 50% ITK inhibitory rate.
In the test for the compounds of Examples 380 and 381, the ATP concentration of the substrate solutions was 6 μmol/L.
For the compound `COCCN(C)C(=O)c1ccc2[nH]c(-c3n[nH]c4c3CCC(C)(C)C4)cc2c1` [Example 313], the IC50 was 47 nM.
For the compound `CC1OCCN(CC(=O)N(C)c2ccc3cc(-c4n[nH]c5c4CCC(C)(C)C5)[nH]c3c2)C1=O` (stereo not drawn) [Example 167], the IC50 is 1 nM.
The value for `CC1(C)CCc2c(-c3cc4cc(C(=O)N5CCC(O)CC5)ccc4[nH]3)n[nH]c2C1` [Example 302] was 39 nM; that for `C[C@@H]1CCc2c(-c3cc4ccc(N(C)C(=O)c5ccccc5)cc4[nH]3)n[nH]c2C1` [Example 358] was 38 nM.
Take `CC1COCCN1C(C)C(=O)N(C)c1ccc2cc(-c3n[nH]c4c3CCC(C)(C)C4)[nH]c2c1` (stereo not drawn) [Example 146]: the IC50 is 11 nM.
On to `COCC(C)NC(=O)c1ccc2cc(-c3n[nH]c4c3CCC(C)(C)C4)[nH]c2c1` (stereo not drawn) [Example 21], for which the IC50 is 30 nM.
With `COCC(=O)N(C)c1ccc2cc(-c3n[nH]c4c3CCC(C)(C)C4)[nH]c2c1` [Example 36], the IC50 was less than 3 nM.
As for `CC(=O)N1CCC[C@@H]1C(=O)N(C)c1ccc2cc(-c3n[nH]c4c3CCC(C)(C)C4)[nH]c2c1` [Example 166], the figure is 1 nM; as for `CN(C(=O)C(C)(C)N1CCOCC1)c1ccc2cc(-c3n[nH]c4c3CCC(C)(C)C4)[nH]c2c1` [Example 161], 22 nM; as for `CC(C)C(C(=O)N(C)c1ccc2cc(-c3n[nH]c4c3CCC(C)(C)C4)[nH]c2c1)N1CCOCC1` (stereo not drawn) [Example 173], 13 nM.
The value for `CN(C)CCN(C(=O)C1CCCO1)c1ccc2cc(-c3n[nH]c4c3CCC(C)(C)C4)[nH]c2c1` (stereo not drawn) [Example 220] was less than 3 nM; that for `CC(C(=O)N(C)c1ccc2cc(-c3n[nH]c4c3CCC(C)(C)C4)[nH]c2c1)C1CCCCC1` (stereo not drawn) [Example 97] was 20 nM.
As for `C[C@H](C(=O)N(C)c1ccc2cc(-c3n[nH]c4c3CCC(C)(C)C4)[nH]c2c1)N1CCOCC1` [Example 135], the figure is 6 nM; as for `COCC1(C)CCc2c(-c3cc4ccc(N(C)C(=O)[C@H]5CC[C@@H](OC)CC5)cc4[nH]3)n[nH]c2C1` (stereo partly drawn) [Example 348], 8 nM.
Consider `CCN(C(=O)CN1CCOC(C)C1=O)c1ccc2cc(-c3n[nH]c4c3CCC(C)(C)C4)[nH]c2c1` (stereo not drawn) [Example 260], for which the IC50 was less than 1 nM.
As for `CN(C(=O)CCN1CCCCC1=O)c1ccc2cc(-c3n[nH]c4c3CCC(C)(C)C4)[nH]c2c1` [Example 141], the figure is 10 nM; as for `CCN(C(=O)CN1C[C@H](C)OCC1=O)c1ccc2cc(-c3n[nH]c4c3CCC(C)(C)C4)[nH]c2c1` [Example 279], less than 1 nM.
In the case of `CC1COCC(=O)N1C(C)C(=O)N(C)c1ccc2cc(-c3n[nH]c4c3CCC(C)(C)C4)[nH]c2c1` (stereo not drawn) [Example 153], the IC50 is 5 nM.
On to `CON(C)C(=O)c1ccc2[nH]c(-c3n[nH]c4c3CCC(C)(C)C4)cc2c1` [Example 321], for which the IC50 was 48 nM.
Consider `CN(C(=O)C(O)c1ccccc1)c1ccc2cc(-c3n[nH]c4c3CCC(C)(C)C4)[nH]c2c1` (stereo not drawn) [Example 68], for which the IC50 is 7 nM.
The value for `CN(Cc1ccccc1)C(=O)c1ccc2[nH]c(-c3n[nH]c4c3CCC(C)(C)C4)cc2c1` [Example 314] was 143 nM; that for `COCC(=O)N(CCN(C)C)c1ccc2cc(-c3n[nH]c4c3CCC(C)(C)C4)[nH]c2c1` [Example 222] was less than 3 nM; that for `CC1(C)CCc2c(-c3cc4cc(C(=O)NC(CO)CO)ccc4[nH]3)n[nH]c2C1` [Example 328] was 26 nM.
The value for `CN(C(=O)C1CC(=O)OC1(C)C)c1ccc2cc(-c3n[nH]c4c3CCC(C)(C)C4)[nH]c2c1` (stereo not drawn) [Example 106] was 7 nM; that for `CN(C(=O)CN1CCCC1=O)c1ccc2cc(-c3n[nH]c4c3CCC(C)(C)C4)[nH]c2c1` [Example 83] was less than 3 nM; that for `CC(C)C(CO)NC(=O)c1ccc2cc(-c3n[nH]c4c3CCC(C)(C)C4)[nH]c2c1` (stereo not drawn) [Example 23] was 18 nM.
Take `CN(C(=O)CN1CCCCC1)c1ccc2cc(-c3n[nH]c4c3CCC(C)(C)C4)[nH]c2c1` [Example 79]: the half-maximal inhibitory concentration (IC50) was 13 nM.
As for `C[C@@H]1COCC(=O)N1CC(=O)N(C)c1ccc2cc(-c3n[nH]c4c3CCC(C)(C)C4)[nH]c2c1` [Example 171], the figure is 1 nM; as for `CN(C(=O)CN1CCCS1(=O)=O)c1ccc2cc(-c3n[nH]c4c3CCC(C)(C)C4)[nH]c2c1` [Example 138], 3 nM.
For the compound `CCC(=O)Nc1ccc2cc(-c3n[nH]c4c3CCC(C)(C)C4)[nH]c2c1` [Example 28], the IC50 was 201 nM.
The value for `COCCN(C(=O)CN1CCC(C)(C)C1=O)c1ccc2cc(-c3n[nH]c4c3CCC(C)(C)C4)[nH]c2c1` [Example 285] was 2 nM; that for `C[C@@H](C(=O)N(C)c1ccc2cc(-c3n[nH]c4c3CCC(C)(C)C4)[nH]c2c1)N1CCOCC1` [Example 5, (S)—N-[2-(6,6-dimethyl-4,5,6,7-tetrahydro-1H-indazol-3-yl)-1H-indol-6-yl]-N-methyl-2-(morpholin-4-yl)propionamide hydrochloride] was 3 nM.
The value for `CC1(C)CCc2c(-c3cc4cc(C(=O)Nc5ccccc5)ccc4[nH]3)n[nH]c2C1` [Example 293] was 263 nM; that for `CCN(C)C(=O)c1ccc2[nH]c(-c3n[nH]c4c3CCC(C)(C)C4)cc2c1` [Example 331] was 60 nM.
For `CN(C)C(=O)c1ccc2[nH]c(-c3n[nH]c4c3CCC(C)(C)C4)cc2c1` [Example 296], the IC50 was 58 nM.
On to `CCN(C(=O)CN1CCCCC1=O)c1ccc2cc(-c3n[nH]c4c3CCC(C)(C)C4)[nH]c2c1` [Example 289], for which the IC50 was less than 1 nM.
As for `CC1(C)CCc2c(-c3cc4ccc(N5CCCCC5=O)cc4[nH]3)n[nH]c2C1` [Example 211], the figure is 33 nM.
As for `CN(CC(=O)N(C)c1ccc2cc(-c3n[nH]c4c3CCC(C)(C)C4)[nH]c2c1)C(=O)CC(C)(C)O` [Example 193], the figure is 2 nM; as for `CN(C(=O)CN1CC(C)(C)CC1=O)c1ccc2cc(-c3n[nH]c4c3CCC(C)(C)C4)[nH]c2c1` [Example 163], 1 nM; as for `CC1CCN(CC(=O)N(CCO)c2ccc3cc(-c4n[nH]c5c4CCC(C)(C)C5)[nH]c3c2)C1=O` (stereo not drawn) [Example 257], 1 nM.
As for `CN(C(=O)CC1CCC(=O)N1C)c1ccc2cc(-c3n[nH]c4c3CCC(C)(C)C4)[nH]c2c1` (stereo not drawn) [Example 142], the figure is 5 nM; as for `COCC(NC(=O)c1ccc2cc(-c3n[nH]c4c3CCC(C)(C)C4)[nH]c2c1)C(C)C` (stereo not drawn) [Example 24], 25 nM.
For `CO[C@H]1CCCN(CC(=O)N(C)c2ccc3cc(-c4n[nH]c5c4CCC(C)(C)C5)[nH]c3c2)C1` [Example 114], the IC50 is 5 nM.
As for `CC(CO)N(C)C(=O)c1ccc2cc(-c3n[nH]c4c3CCC(C)(C)C4)[nH]c2c1` (stereo not drawn) [Example 7, 2-(6,6-dimethyl-4,5,6,7-tetrahydro-1H-indazol-3-yl)-1H-indole-6-carboxylic acid (2-hydroxy-1-methylethyl)methylamide], the figure is 39 nM.
With `CN(C(=O)c1cccc(C(F)(F)F)c1)c1ccc2cc(-c3n[nH]c4c3CCC(C)(C)C4)[nH]c2c1` [Example 31], the IC50 was 34 nM.

Source of the values: patent US8299070B2, “Indole compounds and pharmaceutical use thereof” (Japan Tobacco Inc., priority 2009, dated 2012).
